Reference: publication PMC7298712 (mBio, 2020)

Molecular target: Risk1 (RT0135; rRisk1 WT) (Rickettsia typhi, UniProt Q68XM2)
Assay type: biochemical

Risk1 (RT0135; rRisk1 WT), sequence (Q68XM2 1-707): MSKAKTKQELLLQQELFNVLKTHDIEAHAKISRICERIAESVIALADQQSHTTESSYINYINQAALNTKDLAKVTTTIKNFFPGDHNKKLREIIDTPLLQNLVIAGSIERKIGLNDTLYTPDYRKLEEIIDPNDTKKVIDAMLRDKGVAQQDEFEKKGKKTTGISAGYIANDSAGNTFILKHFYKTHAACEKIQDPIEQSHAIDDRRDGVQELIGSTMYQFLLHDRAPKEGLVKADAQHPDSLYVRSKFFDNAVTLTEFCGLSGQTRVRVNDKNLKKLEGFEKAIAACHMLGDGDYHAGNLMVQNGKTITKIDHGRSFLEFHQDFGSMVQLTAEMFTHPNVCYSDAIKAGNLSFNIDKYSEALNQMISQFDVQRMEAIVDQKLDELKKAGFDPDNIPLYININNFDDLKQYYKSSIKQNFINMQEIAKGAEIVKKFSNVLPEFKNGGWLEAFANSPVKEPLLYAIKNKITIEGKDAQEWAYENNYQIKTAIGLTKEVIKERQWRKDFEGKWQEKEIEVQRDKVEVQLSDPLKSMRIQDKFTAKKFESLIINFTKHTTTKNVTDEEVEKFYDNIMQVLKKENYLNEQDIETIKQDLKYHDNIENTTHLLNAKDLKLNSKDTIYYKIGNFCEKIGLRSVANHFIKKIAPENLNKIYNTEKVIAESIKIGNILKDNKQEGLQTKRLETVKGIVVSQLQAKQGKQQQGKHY

Question: `COC[C@H]1OC(=O)c2coc3c2[C@@]1(C)C1=C(C3=O)[C@@H]2CCC(=O)[C@@]2(C)C[C@H]1OC(C)=O` [wortmannin] was tested. Which “ADP-Glo in vitro kinase assay, inhibition” value did it give?
Answer: preincubation with wortmannin significantly inhibited, in a concentration-dependent manner
